From patent US20100249145A1, “Inhibitors of VEGF Receptor and HGF Receptor Signaling” (Methylgene, Inc., priority 2005, published 2010)
Each block holds one compound with its values, some of them ahead of it.

Experiments:
[1] = target: T1, VEGF receptor KDR (Homo sapiens, UniProt P35968); assay: In vitro receptor tyrosine kinase assay (DELFIA), VEGF receptor KDR; assay type: biochemical; details: Table 30; ATP 0.6 uM, enzyme 5 nM; read-out: VEGF(enz.) (IC50)
T1 construct: made in house; host or cells: Sf9 cells (Spodoptera frugiperda), recombinant baculovirus

[2] = system: U87 cells; assay: In vivo solid tumor disease model, U87 xenograft; design: species or system female athymic CD 1 mice; details: U87MG
Source text: (§1) In Vivo Solid Tumor Disease Model
(§2) This test measures the capacity of compounds to inhibit solid tumor growth.
(§3) Tumor xenografts were established in the flank of female athymic CD 1 mice (Charles River Inc.), by subcutaneous injection of 1×10^6U87, A431 or SKLMS cells/mouse. Once established, tumors were then serially passaged s.c. in nude mice hosts. Tumor fragments from these host animals were used in subsequent compound evaluation experiments. For compound evaluation experiments female nude mice weighing approximately 20 g were implanted s.c. by surgical implantation with tumor fragments of ˜30 mg from donor tumors. When the tumors were approximately 100 mm^3 in size (˜7-10 days following implantation), the animals were randomized a separated into treatment and control groups. Each group contained 6-8 tumor-bearing mice, each of which was ear-tagged and followed individually throughout the experiment
(§4) Mice were weighed and tumor measurements are taken by calipers three times weekly, starting on Day 1. These tumor measurements were converted to tumor volume by the well-known formula (L+W/4)^34/3π. The experiment was terminated when the control tumors reached a size of approximately 1500 mm^3. In this model, the change in mean tumor volume for a compound treated group/the change in mean tumor volume of the control group (non-treated or vehicle treated)×100 (ΔT/ΔC) was subtracted from 100 to give the percent tumor growth inhibition (% TGI) for each test compound. In addition to tumor volumes, body weight of animals were monitored twice weekly for up to 3 weeks.
(§5) Regiment of administration was once daily.

[3] = system: A431 cells; assay: In vivo solid tumor disease model, A431 xenograft; design: species or system female athymic CD 1 mice; details: 30 mg/kg once daily IP, vehicle DMSO
Source text: as §1, §2, §3, §4, §5

[4] = system: SKLMS cells; assay: In vivo solid tumor disease model, SKLMS xenograft; design: species or system female athymic CD 1 mice; details: SKLMS40, 30 mg/kg once daily IP, vehicle DMSO
Source text: as §1, §2, §3, §4, §5

[5] = system: SW48; assay: In vivo solid tumor disease model, SW48 xenograft; design: species or system female athymic CD 1 mice; details: 30 mg/kg once daily IP, vehicle DMSO, 14 days
[6] = system: DU145; assay: In vivo solid tumor disease model, DU145 xenograft; design: species or system female athymic CD 1 mice; details: vehicle DMSO, 10 days
[7] = target: T2, recombinant human c-Met/HGF receptor (Homo sapiens, UniProt P08581); assay: In vitro receptor tyrosine kinase assay (DELFIA), c-Met/HGF receptor; assay type: biochemical; details: Table 30; ATP 10 uM, enzyme 25 nM; read-out: C-Met (enz.) (IC50)
T2 construct: His tag (histidine tag from pBlueBacHis2A); made in house; host or cells: Hi-5 cells (Trichoplusia ni), recombinant baculovirus

[8] = target: TPR-MET fusion protein (Homo sapiens, UniProt P08581); assay: C-Met phosphorylation cell-based assay (MNNGHOS cells, immunoblot); details: Table 30, 3 hours treatment, read-out: C-Met cell-based Y1230-34-35 tpr-met inhibition (IC50)
Source text: C-Met Phosphorylation Cell-Based Assay

[9] = system: HCT116; assay: In vivo solid tumor disease model, HCT116 xenograft; design: species or system female athymic CD 1 mice; details: HCT116, vehicle DMSO
[10] = system: A549; assay: In vivo solid tumor disease model, A549 xenograft; design: species or system female athymic CD 1 mice
[11] = system: MNNG-HOS; assay: In vivo solid tumor disease model, MNNG-HOS xenograft; design: species or system female athymic CD 1 mice; details: 14 days
[12] = system: MDA-MB-231; assay: In vivo solid tumor disease model, MDA-MB-231 xenograft; design: species or system female athymic CD 1 mice; details: 75 mg/kg once daily PO, vehicle 0.5% CMC in acetate buffer (pH 4.0), 14 days
[13] = system: MV4-11; assay: In vivo solid tumor disease model, MV4-11 xenograft; design: species or system female athymic CD 1 mice; details: 20 mg/kg once daily p.o., 14 days
[14] = system: MKN74; assay: In vivo solid tumor disease model, MKN74 xenograft; design: species or system female athymic CD 1 mice; details: vehicle DMSO, 10 days
[15] = 30 mg/kg once daily IP, vehicle DMSO, 14 days
[16] = 30 mg/kg once daily IP, 14 days
[17] = 15 mg/kg once daily IP, vehicle DMSO, 10 days
[18] = 15 mg/kg once daily IV, vehicle 50/50 DMSO:40/60 PEG/0.2 N HCl in saline, 10 days
[19] = 30 mg/kg once daily IV, vehicle 50/50 DMSO:40/60 PEG/0.2 N HCl in saline, 10 days
[20] = 100 mg/kg once daily PO, vehicle 5% DMSO - 1% Tween-80 in water, 14 days

T1 sequence (P35968 806-1356): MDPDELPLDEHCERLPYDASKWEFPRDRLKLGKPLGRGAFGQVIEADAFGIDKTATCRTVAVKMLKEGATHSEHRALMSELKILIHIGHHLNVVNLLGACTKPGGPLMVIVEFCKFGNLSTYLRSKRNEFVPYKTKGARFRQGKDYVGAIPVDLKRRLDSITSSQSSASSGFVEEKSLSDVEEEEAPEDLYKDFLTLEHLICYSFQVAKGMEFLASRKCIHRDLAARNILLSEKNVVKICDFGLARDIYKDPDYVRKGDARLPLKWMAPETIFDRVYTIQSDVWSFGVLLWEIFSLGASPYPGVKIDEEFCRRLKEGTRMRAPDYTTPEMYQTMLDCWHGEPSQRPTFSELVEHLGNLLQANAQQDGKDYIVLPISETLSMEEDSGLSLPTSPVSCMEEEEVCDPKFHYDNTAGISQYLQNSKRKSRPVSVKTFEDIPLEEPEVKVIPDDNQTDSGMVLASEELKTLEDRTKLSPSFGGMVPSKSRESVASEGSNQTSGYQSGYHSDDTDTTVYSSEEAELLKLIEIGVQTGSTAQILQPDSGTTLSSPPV
Chain of TPR-MET fusion protein (P08581 with tags, fused parts or gaps): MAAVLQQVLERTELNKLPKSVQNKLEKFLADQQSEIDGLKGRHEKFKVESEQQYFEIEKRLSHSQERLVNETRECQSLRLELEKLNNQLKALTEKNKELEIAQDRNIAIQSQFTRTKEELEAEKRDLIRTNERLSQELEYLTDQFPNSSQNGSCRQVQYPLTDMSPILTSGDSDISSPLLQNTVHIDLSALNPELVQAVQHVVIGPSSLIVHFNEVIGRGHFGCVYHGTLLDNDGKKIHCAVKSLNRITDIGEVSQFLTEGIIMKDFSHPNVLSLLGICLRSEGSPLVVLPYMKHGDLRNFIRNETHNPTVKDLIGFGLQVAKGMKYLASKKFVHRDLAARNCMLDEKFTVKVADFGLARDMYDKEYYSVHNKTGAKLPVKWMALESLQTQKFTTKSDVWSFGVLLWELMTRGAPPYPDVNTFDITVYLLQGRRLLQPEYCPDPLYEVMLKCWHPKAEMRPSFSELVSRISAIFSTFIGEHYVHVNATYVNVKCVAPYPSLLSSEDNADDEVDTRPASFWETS
T2 sequence (P08581 1078-1337): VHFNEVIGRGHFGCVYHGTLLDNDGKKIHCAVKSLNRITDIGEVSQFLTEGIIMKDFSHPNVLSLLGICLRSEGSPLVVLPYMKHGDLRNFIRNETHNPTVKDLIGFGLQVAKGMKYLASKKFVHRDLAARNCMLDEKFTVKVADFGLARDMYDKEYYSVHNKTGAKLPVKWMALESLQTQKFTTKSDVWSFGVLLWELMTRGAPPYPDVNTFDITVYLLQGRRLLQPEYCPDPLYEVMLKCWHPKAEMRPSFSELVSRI

IC50 [1]: < 50 nM
SMILES: O=C(Cc1ccccc1)NC(=S)Nc1ccc(Oc2ccnc3cc(-c4ccccn4)sc23)c(F)c1 [Example 13, 1-(4-(2-(Pyridin-2-yl)thieno[3,2-b]pyridin-7-yloxy)-3-fluorophenyl)-3-(2-phenylacetyl)thiourea]
Tumor Growth Inhibition (%) [2, 15]: a (% TGI in the range of 75-100)
Tumor Growth Inhibition (%) ([3]; 7 days): b (% TGI in the range of 50-74)
Tumor Growth Inhibition (%) ([4]; 10 days): b (% TGI in the range of 50-74)
Tumor Growth Inhibition (%) [5]: d (% TGI in the range of 0-24)
Tumor Growth Inhibition (%) ([6]; 30 mg/kg once daily IP): d (% TGI in the range of 0-24)

IC50 [7]: 50 to 250 nM
IC50 [1]: 250 to 500 nM
IC50 [8]: 50 to 250 nM
SMILES: CCN(CC)C(=O)c1cc2nccc(Oc3ccc(NC(=S)NC(=O)Cc4ccccc4)cc3F)c2s1 [Example 7, 1-(4-(2-(diethylcarbamoyl)thieno[3,2-b]pyridin-7-yloxy)-3-fluorophenyl)-3-(2-phenylacetyl)thiourea]
Tumor Growth Inhibition (%) [5]: c (% TGI in the range of 25-49)
Tumor Growth Inhibition (%) [9, 16]: b (% TGI in the range of 50-74)

SMILES: Cl.O=C(Cc1c(F)cccc1F)NC(=S)Nc1ccc(Oc2ccnc3cc(C(=O)N4CCCC4)sc23)c(F)c1 [Example 157, 2-(2,6-Difluorophenyl)-N-(3-fluoro-4-(2-(pyrrolidine-1-carbonyl)thieno[3,2-b]pyridin-7-yloxy)phenylcarbamothioyl)acetamide hydrochloride]
Tumor Growth Inhibition (%) ([3]; 14 days): c (% TGI in the range of 25-49)
Tumor Growth Inhibition (%) [10, 15]: c (% TGI in the range of 25-49)

SMILES: Cn1cnc(-c2cc3nccc(Oc4ccc(NC(=S)NC(=O)Cc5ccc(F)cc5)cc4F)c3s2)c1 [drawing 494]
Tumor Growth Inhibition (%) ([11]; 75 mg/kg once daily p.o.): a* (greater than 100% tumor growth inhibition (i.e., tumor shrinkage))

SMILES: O=C(Cc1ccccc1)NC(=S)Nc1ccc(Oc2ccnc3cc(C(=O)N4CC[C@@H](O)C4)sc23)c(F)c1 [Example 38, (R)-N-(3-Fluoro-4-(2-(3-hydroxypyrrolidine-1-carbonyl)thieno[3,2-b]pyridin-7-yloxy)phenylcarbamothioyl)-2-phenylacetamide]
Tumor Growth Inhibition (%) ([3]; 14 days): c (% TGI in the range of 25-49)
Tumor Growth Inhibition (%) [10, 15]: c (% TGI in the range of 25-49)

SMILES: COc1ccccc1CC(=O)NC(=S)Nc1ccc(Oc2ccnc3cc(-c4cn(C)cn4)sc23)c(F)c1 [Example 138, N-(3-Fluoro-4-(2-(1-methyl-1H-imidazol-4-yl)thieno[3,2-b]pyridin-7-yloxy)phenylcarbamothioyl)-2-(2-methoxyphenyl)acetamide]
Tumor Growth Inhibition (%) [12]: b (% TGI in the range of 50-74)

SMILES: C#Cc1ccccc1CC(=O)NC(=S)Nc1ccc(Oc2ccnc3cc(-c4cn(C)cn4)sc23)c(F)c1 [drawing 497]
Tumor Growth Inhibition (%) [13]: a (% TGI in the range of 75-100)

IC50 [1]: < 50 nM
SMILES: Cn1ccnc1-c1cc2nccc(Oc3ccc(NC(=S)NC(=O)Cc4ccccc4)cc3F)c2s1 [Example 15, N-(3-Fluoro-4-(2-(1-methyl-1H-imidazol-2-yl)thieno[3,2-b]pyridin-7-yloxy)phenylcarbamothioyl)-2-phenylacetamide]
Tumor Growth Inhibition (%) [2, 17]: b (% TGI in the range of 50-74)
Tumor Growth Inhibition (%) [2, 18]: b (% TGI in the range of 50-74)
Tumor Growth Inhibition (%) ([2]; 30 mg/kg once daily IP, vehicle DMSO, 10 days): b (% TGI in the range of 50-74)
Tumor Growth Inhibition (%) [2, 15]: b (% TGI in the range of 50-74)
Tumor Growth Inhibition (%) [2, 19]: b (% TGI in the range of 50-74)
Tumor Growth Inhibition (%) [2, 20]: a (% TGI in the range of 75-100)
Tumor Growth Inhibition (%) ([3]; 14 days): b (% TGI in the range of 50-74)
Tumor Growth Inhibition (%) ([4]; 10 days): b (% TGI in the range of 50-74)
Tumor Growth Inhibition (%) [10, 15]: b (% TGI in the range of 50-74)
Tumor Growth Inhibition (%) ([10]; 50 mg/kg once daily PO, vehicle 5% DMSO - 1% Tween-80 in water, 11 days): c (% TGI in the range of 25-49)
Tumor Growth Inhibition (%) ([10]; 75 mg/kg once daily PO, vehicle 5% DMSO - 1% Tween-80 in water, 10 days): b (% TGI in the range of 50-74)
Tumor Growth Inhibition (%) ([10]; 75 mg/kg once daily PO, vehicle 5% DMSO - 1% Tween-80 in water, 12 days): c (% TGI in the range of 25-49)
Tumor Growth Inhibition (%) ([14]; 15 mg/kg once daily IP): c (% TGI in the range of 25-49)
Tumor Growth Inhibition (%) ([14]; 30 mg/kg once daily IP): c (% TGI in the range of 25-49)
Tumor Growth Inhibition (%) ([9]; 15 mg/kg once daily IP, 10 days): c (% TGI in the range of 25-49)
Tumor Growth Inhibition (%) ([9]; 30 mg/kg once daily IP, 10 days): c (% TGI in the range of 25-49)
Tumor Growth Inhibition (%) ([6]; 15 mg/kg once daily IP): d (% TGI in the range of 0-24)

SMILES: Cn1cnc(-c2cc3nccc(Oc4ccc(NC(=S)NC(=O)Cc5ccc(F)cc5F)cc4F)c3s2)c1 [drawing 493]
Tumor Growth Inhibition (%) ([11]; 40 mg/kg once daily p.o.): a (% TGI in the range of 75-100)

SMILES: CCn1cnc(-c2cc3nccc(Oc4ccc(NC(=S)NC(=O)Cc5ccccc5C)cc4F)c3s2)c1 [drawing 495]
Tumor Growth Inhibition (%) ([11]; 20 mg/kg once daily p.o.): c (% TGI in the range of 25-49)

SMILES: CN(C)C(=O)c1cc2nccc(Oc3ccc(NC(=S)NC(=O)Cc4ccccc4)cc3F)c2s1 [Example 1, 1-(4-(2-(Dimethylcarbamoyl)thieno[3,2-b]pyridin-7-yloxy)-3-fluorophenyl)-3-(2-phenylacetyl)thiourea]
IC50 [1]: < 50 nM
Tumor Growth Inhibition (%) [2, 17]: c (% TGI in the range of 25-49)
Tumor Growth Inhibition (%) ([2]; 30 mg/kg once daily IP, vehicle DMSO, 7 days): c (% TGI in the range of 25-49)
Tumor Growth Inhibition (%) [2, 15]: c (% TGI in the range of 25-49)
Tumor Growth Inhibition (%) ([2]; 30 mg/kg once daily IP, vehicle DMSO, 14 days (a* footnote class)): a* (greater than 100% tumor growth inhibition (i.e., tumor shrinkage))
Tumor Growth Inhibition (%) [2, 20]: c (% TGI in the range of 25-49)
Tumor Growth Inhibition (%) ([4]; 14 days): b (% TGI in the range of 50-74)
Tumor Growth Inhibition (%) [10, 15]: b (% TGI in the range of 50-74)
Tumor Growth Inhibition (%) ([14]; 15 mg/kg once daily IP): d (% TGI in the range of 0-24)
Tumor Growth Inhibition (%) ([14]; 30 mg/kg once daily IP): c (% TGI in the range of 25-49)
Tumor Growth Inhibition (%) [5]: b (% TGI in the range of 50-74)
Tumor Growth Inhibition (%) [9, 16]: c (% TGI in the range of 25-49)

IC50 [7]: 50 to 250 nM
IC50 [1]: < 50 nM
IC50 [8]: < 50 nM
SMILES: O=C(Cc1ccccc1)NC(=S)Nc1ccc(Oc2ccnc3cc(C(=O)N4CCCC4)sc23)c(F)c1 [Example 37, 1-{3-Fluoro-4-[2-(pyrrolidine-1-carbonyl)-thieno[3,2-b]pyridin-7-yloxy]-phenyl}-3-phenylacetyl-thiourea]
Tumor Growth Inhibition (%) [2, 18]: b (% TGI in the range of 50-74)
Tumor Growth Inhibition (%) [2, 19]: c (% TGI in the range of 25-49)
Tumor Growth Inhibition (%) ([3]; 14 days): b (% TGI in the range of 50-74)
Tumor Growth Inhibition (%) [10, 15]: c (% TGI in the range of 25-49)
Tumor Growth Inhibition (%) ([6]; 15 mg/kg once daily IP): d (% TGI in the range of 0-24)
Tumor Growth Inhibition (%) ([6]; 30 mg/kg once daily IP): d (% TGI in the range of 0-24)

SMILES: Cn1cnc(-c2cc3nccc(Oc4ccc(NC(=S)NC(=O)Cc5ccccc5F)cc4F)c3s2)c1 [Example 137, N-(3-Fluoro-4-(2-(1-methyl-1H-imidazol-4-yl)thieno[3,2-b]pyridin-7-yloxy)phenylcarbamothioyl)-2-(2-fluorophenyl)acetamide]
Tumor Growth Inhibition (%) [12]: b (% TGI in the range of 50-74)
